The source of these data is patent publication US8840938B2, “Bioavailability enhancing composition” (priority 2011, dated 2014).

Read-outs that look alike come from different tables or passages of the source.

The target in one data set is TRPV1 (Homo sapiens, UniProt Q8NER1). Briefly: Scoville Heat Unit (SHU) as a measure of TRPV1 activation. The settings on record: for Adjusted SHU: SHU of pure agonist times percent agonist in the herb, totals per herb; for SHU of pure Agonist: pure TRPV1 agonist, per mg. How it is done:
SHU as used herein as a measure of TRPV1 activation. SHU mg is calculated as the SHU of a TRPV1 agonist multiplied by the milligrams of the TRPV1 agonist in a compound.

The conditions of data set [1]: cited from earlier work; for Peak theophylline plasma levels / levels of theophylline (absorption) / mean residence times of theophylline: rabbits, oral theophylline 20 mg/kg.
Where [2] appears, read: concomitant ground capsicum fruit suspension.

Chain of TRPV1 (Q8NER1 whole entry, species assumed): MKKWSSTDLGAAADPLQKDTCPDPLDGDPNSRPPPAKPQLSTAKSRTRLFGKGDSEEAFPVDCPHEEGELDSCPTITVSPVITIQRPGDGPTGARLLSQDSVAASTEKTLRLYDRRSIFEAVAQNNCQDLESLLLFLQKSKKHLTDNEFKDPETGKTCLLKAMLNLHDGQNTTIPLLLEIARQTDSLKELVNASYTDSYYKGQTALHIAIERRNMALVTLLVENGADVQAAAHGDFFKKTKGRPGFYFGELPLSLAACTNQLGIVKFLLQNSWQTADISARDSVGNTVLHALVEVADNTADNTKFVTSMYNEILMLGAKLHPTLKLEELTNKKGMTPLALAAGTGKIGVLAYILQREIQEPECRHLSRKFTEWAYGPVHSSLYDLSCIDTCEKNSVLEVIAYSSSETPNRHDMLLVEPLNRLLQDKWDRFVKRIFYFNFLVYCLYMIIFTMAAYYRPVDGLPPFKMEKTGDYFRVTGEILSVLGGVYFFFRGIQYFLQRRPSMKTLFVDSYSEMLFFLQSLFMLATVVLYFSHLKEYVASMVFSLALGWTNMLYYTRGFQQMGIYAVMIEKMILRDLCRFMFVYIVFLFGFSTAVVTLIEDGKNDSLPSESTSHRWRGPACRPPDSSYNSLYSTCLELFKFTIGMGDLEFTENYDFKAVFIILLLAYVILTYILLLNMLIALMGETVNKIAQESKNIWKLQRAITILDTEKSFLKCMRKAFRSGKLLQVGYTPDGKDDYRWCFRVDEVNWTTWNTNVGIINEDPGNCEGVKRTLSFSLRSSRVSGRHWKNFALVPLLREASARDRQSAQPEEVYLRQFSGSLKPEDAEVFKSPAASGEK

For `COc1cc(CNC(=O)CCCC/C=C/C(C)C)ccc1O` [capsaicin], at TRPV1, the “Adjusted SHU” value is recorded as 40,000 SHU and the “SHU of pure Agonist” value is on record as 16,000,000 SHU.

For `C/C=C/C=C/C=C/CC/C=C/C(=O)NCC(C)C` [β-sanshool], on TRPV1, the “Adjusted SHU” value is on record as 49 SHU and the “SHU of pure Agonist” value was 70,000 SHU.

`C/C=C/C=C/C=C/CC/C=C/C=C/C(=O)NCC(C)C` [δ-sanshool]: on TRPV1, the “Adjusted SHU” value is listed as 22 SHU and the “SHU of pure Agonist” value was 110,000 SHU.

For `Cn1c(=O)c2[nH]cnc2n(C)c1=O` [theophylline], in data set [1] (setting [2]), the “Peak theophylline plasma levels” value is 8.78 ± 0.98 mg/L, the “levels of theophylline (absorption)” value was 138.32+/−17.27 mg H/liter and the “mean residence times of theophylline” value was 20.98+/−5.75 H. In data set [1] (without capsicum), the “Peak theophylline plasma levels” value was 6.65 ± 0.76 mg/L, the “levels of theophylline (absorption)” value was 86.06+/−9.78 mg H/liter and the “mean residence times of theophylline” value is 14.94+/−2.97 H. In addition, the “theophylline plasma levels after second administration of capsicum suspension” value in data set [1] (second capsicum suspension 11 hours later, every rabbit) was “new rise”.

Regarding `CCCCC[C@H](O)CC(=O)CCc1ccc(O)c(OC)c1` [Formulation 6-gingerol, 6-gingerol], on TRPV1, the “Adjusted SHU” value is recorded as 3,600 SHU and the “SHU of pure Agonist” value is recorded as 60,000 SHU.

On to `C/C=C/C=C/C=C\CC/C=C/C=C/C(=O)NCC(C)C` [γ-sanshool], for which, on TRPV1, the “Adjusted SHU” value worked out at 209 SHU and the “SHU of pure Agonist” value is 110,000 SHU.

Turning to `C/C=C/C=C/C=C\CC/C=C/C(=O)NCC(C)C` [α-sanshool], on TRPV1, the “Adjusted SHU” value was determined as 368 SHU and the “SHU of pure Agonist” value is given as 80,000 SHU.

As for `CCCCC/C=C/C(=O)CCc1ccc(O)c(OC)c1` [Formulation 6-shogaol, 6-shogaol], on TRPV1, the “Adjusted SHU” value is on record as 9,600 SHU and the “SHU of pure Agonist” value is on record as 160,000 SHU.

On to `C/C=C/C=C/C=C/CC/C=C/C(=O)NCC(C)(C)O` [β-hydroxy-sanshool], for which, on TRPV1, the “Adjusted SHU” value is recorded as 35 SHU and the “SHU of pure Agonist” value is on record as 13,000 SHU.

With `C/C=C/C=C/C=C\CC/C=C/C(=O)NCC(C)(C)O` [α-hydroxy-sanshool], on TRPV1, the “Adjusted SHU” value was 619 SHU and the “SHU of pure Agonist” value is recorded as 26,000 SHU.
